# Experimental data from the supplement of paper PMC10307832.
# What was measured:
# Test in all cases: relative viability (nuclei count vs DMSO), 5 days (fraction); higher = more cells survive
# [1] = test system: NCI-H1648
# Method in brief: (§1)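 One day after seeding in 1536-well plates, lung cancer cell lines were dosed by pin tool. Dosing was either single-drug or a fixed anchor-drug dose plus five library-drug doses (not always all listed) in √10 steps. After 5 days, nuclei were stained in one fix-and-stain step and counted on 4× images, and relative viability is the nuclei count of treated wells over that of vehicle wells, given as the median of duplicate plates.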
# [2] = test system: SK-LU-1
# Method in brief: as §1
# [3] = test system: NCI-H1755
# Method in brief: as §1
# [4] = test system: HCC-78
# Method in brief: as §1
# [5] = test system: EKVX
# Method in brief: as §1
# [6] = test system: NCI-H1944
# Method in brief: as §1
# [7] = test system: NCI-H596
# Method in brief: as §1
# [8] = test system: HCC-827
# Method in brief: as §1
# [9] = test system: LU99A
# Method in brief: as §1
# [10] = test system: NCI-H2342
# Method in brief: as §1
# [11] = test system: NCI-H1975
# Method in brief: as §1
# [12] = test system: HARA
# Method in brief: as §1
# [13] = test system: 201T
# Method in brief: as §1
# [14] = test system: NCI-H1734
# Method in brief: as §1
# [15] = test system: LXF-289
# Method in brief: as §1
# [16] = test system: NCI-H1993
# Method in brief: as §1
# [17] = test system: NCI-H3122
# Method in brief: as §1
# [18] = test system: COR-L23
# Method in brief: as §1
# [19] = test system: HCC-366
# Method in brief: as §1
# [20] = test system: HCC-15
# Method in brief: as §1
# [21] = test system: BEN
# Method in brief: as §1
# [22] = test system: NCI-H1703
# Method in brief: as §1
# [23] = test system: NCI-H522
# Method in brief: as §1
# [24] = test system: COR-L 105
# Method in brief: as §1
# [25] = test system: NCI-H1650
# Method in brief: as §1
compound,measurement,setting,value
CCCCCCCCCCCC1=C(O)C(=O)C=C(O)C1=O [Embelin] + O=C(c1cc(Cc2n[nH]c(=O)c3ccccc23)ccc1F)N1CCN(C(=O)C2CC2)CC1 [Olaparib] (partner 8 µM),relative viability,[1]; first compound 0.08 µM,1
same,relative viability,[1]; first compound 0.8 µM,0.904
same,relative viability,[1]; first compound 2.53 µM,1.14
same,relative viability,[1]; first compound 8 µM,1.21
same,relative viability,[2]; first compound 0.08 µM,0.591
same,relative viability,[2]; first compound 0.8 µM,0.56
same,relative viability,[2]; first compound 2.53 µM,0.505
same,relative viability,[2]; first compound 8 µM,0.433
same,relative viability,[3]; first compound 0.08 µM,0.986
same,relative viability,[3]; first compound 0.8 µM,0.879
same,relative viability,[3]; first compound 2.53 µM,0.901
same,relative viability,[3]; first compound 8 µM,0.849
same,relative viability,[4]; first compound 0.08 µM,0.953
same,relative viability,[4]; first compound 0.8 µM,0.78
same,relative viability,[4]; first compound 2.53 µM,0.961
same,relative viability,[4]; first compound 8 µM,0.778
same,relative viability,[5]; first compound 0.08 µM,0.816
same,relative viability,[5]; first compound 0.8 µM,0.856
same,relative viability,[5]; first compound 2.53 µM,0.984
same,relative viability,[5]; first compound 8 µM,0.897
same,relative viability,[6]; first compound 0.08 µM,0.402
same,relative viability,[6]; first compound 0.8 µM,0.474
same,relative viability,[6]; first compound 2.53 µM,0.472
same,relative viability,[6]; first compound 8 µM,0.425
same,relative viability,[7]; first compound 0.08 µM,0.698
same,relative viability,[7]; first compound 0.8 µM,0.707
same,relative viability,[7]; first compound 2.53 µM,0.68
same,relative viability,[7]; first compound 8 µM,0.762
same,relative viability,[8]; first compound 0.08 µM,0.634
same,relative viability,[8]; first compound 0.8 µM,0.648
same,relative viability,[8]; first compound 2.53 µM,0.701
same,relative viability,[8]; first compound 8 µM,0.715
same,relative viability,[9]; first compound 0.08 µM,0.293
same,relative viability,[9]; first compound 0.8 µM,0.218
same,relative viability,[9]; first compound 2.53 µM,0.281
same,relative viability,[9]; first compound 8 µM,0.241
same,relative viability,[10]; first compound 0.08 µM,0.482
same,relative viability,[10]; first compound 0.8 µM,0.432
same,relative viability,[10]; first compound 2.53 µM,0.459
same,relative viability,[10]; first compound 8 µM,0.427
same,relative viability,[11]; first compound 0.08 µM,0.887
same,relative viability,[11]; first compound 0.8 µM,0.779
same,relative viability,[11]; first compound 2.53 µM,0.932
same,relative viability,[11]; first compound 8 µM,0.904
same,relative viability,[12]; first compound 0.08 µM,0.85
same,relative viability,[12]; first compound 0.8 µM,0.734
same,relative viability,[12]; first compound 2.53 µM,1.12
same,relative viability,[12]; first compound 8 µM,0.763
same,relative viability,[13]; first compound 0.08 µM,0.826
same,relative viability,[13]; first compound 0.8 µM,0.875
same,relative viability,[13]; first compound 2.53 µM,0.853
same,relative viability,[13]; first compound 8 µM,0.902
same,relative viability,[14]; first compound 0.08 µM,0.623
same,relative viability,[14]; first compound 0.8 µM,0.568
same,relative viability,[14]; first compound 2.53 µM,0.651
same,relative viability,[14]; first compound 8 µM,0.644
same,relative viability,[15]; first compound 0.08 µM,1.06
same,relative viability,[15]; first compound 0.8 µM,1.17
same,relative viability,[15]; first compound 2.53 µM,1.26
same,relative viability,[15]; first compound 8 µM,1.14
same,relative viability,[16]; first compound 0.08 µM,1.16
same,relative viability,[16]; first compound 0.8 µM,1.07
same,relative viability,[16]; first compound 2.53 µM,1.21
same,relative viability,[16]; first compound 8 µM,1.6
same,relative viability,[17]; first compound 0.08 µM,0.646
same,relative viability,[17]; first compound 0.8 µM,0.603
same,relative viability,[17]; first compound 2.53 µM,0.609
same,relative viability,[17]; first compound 8 µM,0.671
same,relative viability,[18]; first compound 0.08 µM,0.373
same,relative viability,[18]; first compound 0.8 µM,0.352
same,relative viability,[18]; first compound 2.53 µM,0.348
same,relative viability,[18]; first compound 8 µM,0.346
same,relative viability,[19]; first compound 0.08 µM,0.335
same,relative viability,[19]; first compound 0.8 µM,0.369
same,relative viability,[19]; first compound 2.53 µM,0.372
same,relative viability,[19]; first compound 8 µM,0.423
same,relative viability,[20]; first compound 0.08 µM,0.689
same,relative viability,[20]; first compound 0.8 µM,0.727
same,relative viability,[20]; first compound 2.53 µM,0.823
same,relative viability,[20]; first compound 8 µM,0.73
same,relative viability,[21]; first compound 0.08 µM,1.15
same,relative viability,[21]; first compound 0.8 µM,1.37
same,relative viability,[21]; first compound 2.53 µM,1.13
same,relative viability,[21]; first compound 8 µM,1.22
same,relative viability,[22]; first compound 0.08 µM,0.457
same,relative viability,[22]; first compound 0.8 µM,0.442
same,relative viability,[22]; first compound 2.53 µM,0.388
same,relative viability,[22]; first compound 8 µM,0.286
same,relative viability,[23]; first compound 0.08 µM,0.674
same,relative viability,[23]; first compound 0.8 µM,0.633
same,relative viability,[23]; first compound 2.53 µM,0.689
same,relative viability,[23]; first compound 8 µM,0.945
same,relative viability,[24]; first compound 0.08 µM,0.737
same,relative viability,[24]; first compound 0.8 µM,0.611
same,relative viability,[24]; first compound 2.53 µM,0.615
same,relative viability,[24]; first compound 8 µM,0.573
same,relative viability,[25]; first compound 0.08 µM,0.775
same,relative viability,[25]; first compound 0.8 µM,0.85
same,relative viability,[25]; first compound 2.53 µM,1.02
same,relative viability,[25]; first compound 8 µM,0.817
